What was measured:
human LINE-1 = test: Human LINE-1 (L1) retrotransposition dual-luciferase reporter assay in HeLa cells; type: cell-based; conditions: Homo sapiens, HeLa, 72 h, read-out: Human LINE-1 IC50 (Human L1 activity inhibition)
Procedure: Representative compounds were tested for inhibition of retrotransposition activity of human LINE-1 (L1) retrotransposition reporter assay in HeLa cells according to the following procedure.
Human Cervical Adenocarcinoma Cells (HeLa) were cultured in Dulbecco's Modified Eagle's Medium (DMEM) containing 4500 mg/L glucose, L-glutamine, sodium pyruvate and sodium bicarbonate, supplemented with 10% of heat inactivated fetal bovine serum (FBS). Cells were grown at 37° C. in an atmosphere of 5% CO2. The dual luciferase-encoding plasmid pYX017 was provided by Prof Wenfeng An (Xie, et al., 2011, Nucleic Acids Res).
The reporter assay was performed in 96-well white, optical bottom plates (Thermo Fisher, 165306). 24 hours prior to transfection, HeLa cells were seeded in a density of 2,500 cells per well, in 50 μL of DMEM, 10% FBS media volume. Cells were incubated at 37° C. in an atmosphere of 5% CO2. Seeding was optimized to achieve approximately 30% cell confluency on the day of transfection. A transfection mix was prepared by combining transfection reagent FuGENE® HD (Promega, E2311) and plasmid DNA (100 ng per well) in a 3:1 ratio, in OpiMEM media (Thermo Fisher, 31985062). Next, 5 μL of the transfection mix was combined with 20 μL of DMEM, 10% FBS media, and 25 μL of this mix was added into each well of an assay plate. In each assay plate one column remained untransfected to serve as a blank luminescence signal.
Serial dilution of test compounds was performed in DMSO and transferred to medium. Next, 25 μL of media-diluted compounds series were transferred to an assay plate containing cells and transfection media. The final concentration of DMSO in treated wells was 0.2%. Serial dilutions of compounds were added to an assay plate immediately after transfection. Compounds were tested in triplicates. The assay plate was then incubated with transfection reagent and compounds at 37° C. in an atmosphere of 5% CO2 for 72 hours.
Luciferase reporter activity was quantified with the Dual-Luciferase® Reporter Assay System (Promega) following the manufacturer's manual, with a passive lysis buffer volume increased to 30 μL and lysis incubation time increased to 20 min at room temperature with gentle shaking, to ensure complete cell lysis. Luminescence was measured using a SpectraMax i3×Multi-Mode Microplate Reader, with integration times of 100 ms and 10 ms applied to measure FLuc and RLuc signals, respectively. Relative LNE-1 activity was calculated as Firefly signal/Renilla signal*10,000. In order to determine IC50 values for each compound, dose response data were fit to a logistic using non-linear regression.

cancer cell lines = test: Cancer cell proliferation activity of representative nucleosides, CellTiterGlo 72 h (Example 7, Tables 8 and 9); type: cell-based; conditions: 72 h
Summary of the method: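 Percent viability was set against 0.1% DMSO (100%) and 10 μM staurosporine (0%), with signal from CellTiterGlo luminescence. Dose-response treatment began one day after seeding and lasted 72 h at 37° C under 5% or 10% CO2, with 0.1% final DMSO.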

- IC50 (human LINE-1): 0.0036 µM
- IC50 (cancer cell lines; 72 h, 5637, bladder): 3.52 µM
- IC50 (cancer cell lines; CLS439, bladder): > 50 µM
- IC50 (cancer cell lines; HS729, muscle): 3.42 µM
- IC50 (cancer cell lines; J82, bladder): > 50 µM
- IC50 (cancer cell lines; JAR, placenta): > 50 µM
- IC50 (cancer cell lines; MT3, breast): 1.62 µM
- IC50 (cancer cell lines; PC3, prostate): 3.02 µM
- IC50 (cancer cell lines; RD, muscle): 3.39 µM
- IC50 (cancer cell lines; T24, bladder): > 50 µM
- IC50 (cancer cell lines; Homo sapiens, 22Rv1, 72 h, 22RV1, prostate): > 50 µM
- IC50 (cancer cell lines; Homo sapiens, 786-0, 72 h, 786O, kidney): > 50 µM
- IC50 (cancer cell lines; Homo sapiens, A204, 72 h, A204, muscle): 1.58 µM
- IC50 (cancer cell lines; Homo sapiens, A549, 72 h, A549, lung): 3.25 µM
- IC50 (cancer cell lines; Homo sapiens, A673, 72 h, A673, bone): > 50 µM
- IC50 (cancer cell lines; Homo sapiens, A2780, 72 h, A2780, ovary): > 50 µM
- IC50 (cancer cell lines; Homo sapiens, A-375, 72 h, A375, skin): 2.34 µM
- IC50 (cancer cell lines; Homo sapiens, A-431, 72 h, A431, skin): > 50 µM
- IC50 (cancer cell lines; Homo sapiens, ACHN, kidney): 5.89 µM
- IC50 (cancer cell lines; Homo sapiens, ASPC1, 72 h, ASPC1, pancreas): 5.31 µM
- IC50 (cancer cell lines; Homo sapiens, BT-20, 72 h, BT20, breast): > 50 µM
- IC50 (cancer cell lines; Homo sapiens, BXPC-3, 72 h, BXPC3, pancreas): 3.54 µM
- IC50 (cancer cell lines; Homo sapiens, C-33-A, C33A, endometrial): 3.7 µM
- IC50 (cancer cell lines; Homo sapiens, CAKI-1, 72 h, CAKI1, kidney): 5.33 µM
- IC50 (cancer cell lines; Homo sapiens, COLO 205, 72 h, COLO205, colon): 1.8 µM
- IC50 (cancer cell lines; Homo sapiens, COLO-678, 72 h, COLO678, colon): > 50 µM
- IC50 (cancer cell lines; Homo sapiens, Ca-Ski, CASKI, endometrial): > 50 µM
- IC50 (cancer cell lines; Homo sapiens, Caco-2, 72 h, CACO2, colon): > 50 µM
- IC50 (cancer cell lines; Homo sapiens, Calu-6, 72 h, CALU6, lung): 6.13 µM
- IC50 (cancer cell lines; Homo sapiens, DLD-1, 72 h, DLD1, colon): > 50 µM
- IC50 (cancer cell lines; Homo sapiens, DU-145, 72 h, DU145, prostate): 6.33 µM
- IC50 (cancer cell lines; Homo sapiens, EFO-21, 72 h, EFO21, ovary): > 50 µM
- IC50 (cancer cell lines; Homo sapiens, EJ-28, 72 h, EJ28, bladder): > 50 µM
- IC50 (cancer cell lines; Homo sapiens, Granta-519, 72 h, GRANTA-519, hematological): 0.89 µM
- IC50 (cancer cell lines; Homo sapiens, HCT-15, 72 h, HCT15, colon): > 50 µM
- IC50 (cancer cell lines; Homo sapiens, HCT-116, 72 h, HCT116, colon): 3.2 µM
- IC50 (cancer cell lines; Homo sapiens, HEK293, 72 h, HEK293, kidney): 6.09 µM
- IC50 (cancer cell lines; Homo sapiens, HL-60, 72 h, HL-60, hematological): 3.46 µM
- IC50 (cancer cell lines; Homo sapiens, HT-29, 72 h, HT29, colon): > 50 µM
- IC50 (cancer cell lines; Homo sapiens, HT-1080, 72 h, HT1080, connective tissue): 3.72 µM
- IC50 (cancer cell lines; Homo sapiens, HeLa, endometrial): 3.1 µM
- IC50 (cancer cell lines; Homo sapiens, HepG2, 72 h, HEPG2, liver): > 50 µM
- IC50 (cancer cell lines; Homo sapiens, Hs-578T, HS578T, breast): > 50 µM
- IC50 (cancer cell lines; Homo sapiens, IGROV-1, 72 h, IGROV1, ovary): > 50 µM
- IC50 (cancer cell lines; Homo sapiens, IMR-90, 72 h, IMR90, lung): 3.47 µM
- IC50 (cancer cell lines; Homo sapiens, JEG-3, 72 h, JEG3, placenta): > 50 µM
- IC50 (cancer cell lines; Homo sapiens, JIMT-1, 72 h, JIMT1, breast): 5.55 µM
- IC50 (cancer cell lines; Homo sapiens, K562, 72 h, K-562, hematological): > 50 µM
- IC50 (cancer cell lines; Homo sapiens, Kasumi 1, 72 h, KASUMI-1, hematological): 0.18 µM
- IC50 (cancer cell lines; Homo sapiens, L-363, 72 h, L-363, hematological): 3.29 µM
- IC50 (cancer cell lines; Homo sapiens, LoVo, colon): > 50 µM
- IC50 (cancer cell lines; Homo sapiens, MCF7, 72 h, MCF7, breast): 5.68 µM
- IC50 (cancer cell lines; Homo sapiens, MDA-MB-231, 72 h, MDAMB231, breast): 2.85 µM
- IC50 (cancer cell lines; Homo sapiens, MDA-MB-435, 72 h, MDAMB435, skin): > 50 µM
- IC50 (cancer cell lines; Homo sapiens, MDA-MB-436, 72 h, MDAMB436, breast): 5.23 µM
- IC50 (cancer cell lines; Homo sapiens, MDA-MB-468, 72 h, MDAMB468, breast): > 50 µM
- IC50 (cancer cell lines; Homo sapiens, MG-63, 72 h, MG63, bone): 4.11 µM
- IC50 (cancer cell lines; Homo sapiens, MHH-ES-1, 72 h, MHHES1, bone): 3.92 µM
- IC50 (cancer cell lines; Homo sapiens, MIA PaCa-2, 72 h, MIAPACA2, pancreas): > 50 µM
- IC50 (cancer cell lines; Homo sapiens, MINO, hematological): 1.51 µM
- IC50 (cancer cell lines; Homo sapiens, MV4-11, 72 h, MV4-11, hematological): 2.25 µM
- IC50 (cancer cell lines; Homo sapiens, NCI-H23, 72 h, NCI-H23, lung): 1.68 µM
- IC50 (cancer cell lines; Homo sapiens, NCI-H82, 72 h, NCIH82, lung): > 50 µM
- IC50 (cancer cell lines; Homo sapiens, NCI-H292, 72 h, NCIH292, lung): 5.22 µM
- IC50 (cancer cell lines; Homo sapiens, NCI-H460, 72 h, NCIH460, ung): > 50 µM
- IC50 (cancer cell lines; Homo sapiens, OVCAR-3, 72 h, OVCAR3, ovary): 1.82 µM
- IC50 (cancer cell lines; Homo sapiens, OVCAR-4, 72 h, OVCAR4, ovary): 3.27 µM
- IC50 (cancer cell lines; Homo sapiens, PANC-1, 72 h, PANC1, pancreas): > 50 µM
- IC50 (cancer cell lines; Homo sapiens, PLC-PRF-5, 72 h, PLCPRF5, liver): > 50 µM
- IC50 (cancer cell lines; Homo sapiens, Panc1005, 72 h, PANC1005, pancreas): 6.31 µM
- IC50 (cancer cell lines; Homo sapiens, Ramos, hematological): 1.85 µM
- IC50 (cancer cell lines; Homo sapiens, SAOS-2, 72 h, SAOS2, bone): 1.73 µM
- IC50 (cancer cell lines; Homo sapiens, SF-268, 72 h, SF268, brain): > 50 µM
- IC50 (cancer cell lines; Homo sapiens, SF-295, 72 h, SF295, brain): > 50 µM
- IC50 (cancer cell lines; Homo sapiens, SK-BR-3, 72 h, SKBR3, breast): 3.13 µM
- IC50 (cancer cell lines; Homo sapiens, SK-HEP1, 72 h, SKHEP1, liver): 4.99 µM
- IC50 (cancer cell lines; Homo sapiens, SK-LMS-1, 72 h, SKLMS1, uterus): > 50 µM
- IC50 (cancer cell lines; Homo sapiens, SK-MEL-5, 72 h, SKMEL5, skin): > 50 µM
- IC50 (cancer cell lines; Homo sapiens, SK-MEL-28, 72 h, SKMEL28, skin): 3.1 µM
- IC50 (cancer cell lines; Homo sapiens, SK-N-AS, SKNAS, brain): 0.75 µM
- IC50 (cancer cell lines; Homo sapiens, SK-N-SH, SKNSH, brain): 0.6 µM
- IC50 (cancer cell lines; Homo sapiens, SK-OV-3, 72 h, SKOV3, ovary): 2.37 µM
- IC50 (cancer cell lines; Homo sapiens, SNB-75, 72 h, SNB75, brain): > 50 µM
- IC50 (cancer cell lines; Homo sapiens, SU-DHL10, 72 h, SU-DHL-10, hematological): 4.83 µM
- IC50 (cancer cell lines; Homo sapiens, SU-DHL-6, 72 h, SU-DHL-6, hematological): 6.01 µM
- IC50 (cancer cell lines; Homo sapiens, SW-620, 72 h, SW620, colon): > 50 µM
- IC50 (cancer cell lines; Homo sapiens, TE-671, 72 h, TE671, muscle): 3.05 µM
- IC50 (cancer cell lines; Homo sapiens, THP-1, 72 h, THP-1, hematological): 3.23 µM
- IC50 (cancer cell lines; Homo sapiens, U2OS, bone): > 50 µM
- IC50 (cancer cell lines; Homo sapiens, U-87 MG, U87MG, brain): 5.24 µM
- IC50 (cancer cell lines; Homo sapiens, UMUC3, 72 h, UMUC3, bladder): > 50 µM
- IC50 (cancer cell lines; Homo sapiens, UO-31, 72 h, UO31, kidney): > 50 µM
- IC50 (cancer cell lines; Homo sapiens, WSU-NHL, hematological): 2.55 µM
- IC50 (cancer cell lines; NCI-H358M, NCIH358M, lung): 1.63 µM
- IC50 (cancer cell lines; PBMC, hematological): > 50 µM
- IC50 (cancer cell lines; RD-ES, RDES, bone): > 50 µM
Compound: CC[C@]1(CO)O[C@@H](n2cnc3c(N)nc(N)nc32)C[C@@H]1O [compound 25]

Reference: US20230293526A1, “METHOD FOR TREATING CANCER WITH A REVERSE TRANSCRIPTASE INHIBITOR” (PrimeFour Therapeutics, Inc., priority 2020, published 2023)
